Results taken from patent publication US20240246964A1 (Arbutus Biopharma Corporation, priority 2021, published 2024).

These compounds were tested against human PD-L1 (Homo sapiens (Human), UniProt Q9NZQ7) (assay: T cell activation luciferase reporter cell culture system (T Cell Activation Assay)). Settings: luciferase reporter assay; PD-L1 aAPC/CHO-K1 cells with PD-1 effector Jurkat T cells.
Assay type: cell-based

Chain of human PD-L1 (Q9NZQ7 19-290): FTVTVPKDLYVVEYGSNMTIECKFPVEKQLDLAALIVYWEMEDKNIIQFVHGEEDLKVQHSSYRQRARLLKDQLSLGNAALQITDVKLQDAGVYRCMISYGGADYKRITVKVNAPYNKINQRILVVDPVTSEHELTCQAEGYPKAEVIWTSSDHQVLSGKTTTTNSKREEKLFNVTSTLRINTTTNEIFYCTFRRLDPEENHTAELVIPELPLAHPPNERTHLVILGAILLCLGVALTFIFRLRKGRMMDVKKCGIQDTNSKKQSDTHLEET

Row | EC50 | SMILES
1 | 0.0105 µM | COc1cc(-c2nccc(-c3cccc(-c4ccc(CNC5CCN(C(=O)CO)CC5)c(OC)n4)c3Cl)c2Cl)ccc1CNC1CCN(C(=O)CO)CC1 [Example 443, 1-(4-(((6-(2-Chloro-3-(3-chloro-2-(4-(((1-(2-hydroxyacetyl)piperidin-4-yl)amino)methyl)-3-methoxyphenyl)pyridin-4-yl)phenyl)-2-methoxypyridin-3-yl)methyl)amino)piperidin-1-yl)-2-hydroxyethan-1-one]
2 | ≥ 10 µM | COc1cc(-c2nccc(-c3cccc(-c4ccc(CNC5CCN(c6ccccn6)CC5)c(OC)n4)c3Cl)c2Cl)ccc1CNC1CCN(c2ccccn2)CC1 [Example 444, N-((6-(2-Chloro-3-(3-chloro-2-(3-methoxy-4-(((1-(pyridin-2-yl)piperidin-4-yl)amino)methyl)phenyl)pyridin-4-yl)phenyl)-2-methoxypyridin-3-yl)methyl)-1-(pyridin-2-yl)piperidin-4-amine]
3 | ≥ 10 µM | COc1cc(-c2nccc(-c3cccc(-c4ccc(CNC5CCN(c6ncccc6Cl)CC5)c(OC)n4)c3Cl)c2Cl)ccc1CNC1CCN(c2ncccc2Cl)CC1 [Example 445, N-((6-(2-Chloro-3-(3-chloro-2-(4-(((1-(3-chloropyridin-2-yl)piperidin-4-yl)amino)methyl)-3-methoxyphenyl)pyridin-4-yl)phenyl)-2-methoxypyridin-3-yl)methyl)-1-(3-chloropyridin-2-yl)piperidin-4-amine]
4 | 0.0613 µM | COc1cc(-c2nccc(-c3cccc(-c4ccc(CN5CCC(OC)CC5)c(OC)n4)c3Cl)c2Cl)ccc1CN1CCC(OC)CC1 [Example 447, 3-Chloro-4-(2-chloro-3-(6-methoxy-5-((4-methoxypiperidin-1-yl)methyl)pyridin-2-yl)phenyl)-2-(3-methoxy-4-((4-methoxypiperidin-1-yl)methyl)phenyl)pyridine]
5 | 0.0763 µM | COc1cc(-c2nccc(-c3cccc(-c4ccc(CN[C@H]5CC[C@@H](OC)CC5)c(OC)n4)c3Cl)c2Cl)ccc1CN[C@H]1CC[C@@H](OC)CC1 [Example 448, (1s,4s)-N-((6-(2-Chloro-3-(3-chloro-2-(3-methoxy-4-((((1s,4s)-4-methoxycyclohexyl)amino)methyl)phenyl)pyridin-4-yl)phenyl)-2-methoxypyridin-3-yl)methyl)-4-methoxycyclohexan-1-amine]
6 | 1.97 µM | COc1cc(-c2nccc(-c3cccc(-c4ccc(CN5CC6(CNC(=O)C6)C5)c(OC)n4)c3F)c2F)ccc1CN1CC2(CNC(=O)C2)C1 [Example 451, 2-(4-(3-Fluoro-4-(2-fluoro-3-(6-methoxy-5-((7-oxo-2,6-diazaspiro[3.4]octan-2-yl)methyl)pyridin-2-yl)phenyl)pyridin-2-yl)-2-methoxybenzyl)-2,6-diazaspiro[3.4]octan-7-one]
7 | 0.27 µM | COc1nc(-c2cccc(-c3ccnc(-c4cc(OC)c5nc(CN[C@H]6CC[C@H](O)CC6)cn5c4)c3Cl)c2Cl)ccc1CN[C@H]1CC[C@H](O)CC1 [Example 453, (1r,4r)-4-(((6-(2-Chloro-3-(3-chloro-2-(2-((((1r,4r)-4-hydroxycyclohexyl)amino)methyl)-8-methoxyimidazo[1,2-a]pyridin-6-yl)pyridin-4-yl)phenyl)-2-methoxypyridin-3-yl)methyl)amino)cyclohexan-1-ol]
8 | 0.203 µM | COc1nc(-c2cccc(-c3ccnc(-c4cc(OC)c5nc(CN6CC7(CCC(=O)N7)C6)cn5c4)c3Cl)c2Cl)ccc1CN1CC2(CCC(=O)N2)C1 [Example 454, 2-((6-(2-Chloro-3-(3-chloro-2-(8-methoxy-2-((6-oxo-2,5-diazaspiro[3.4]octan-2-yl)methyl)imidazo[1,2-a]pyridin-6-yl)pyridin-4-yl)phenyl)-2-methoxypyridin-3-yl)methyl)-2,5-diazaspiro[3.4]octan-6-one]
9 | 0.174 µM | COc1nc(-c2cccc(-c3ccnc(-c4cc(OC)c5nc(CN6CC(C)(O)C6)cn5c4)c3Cl)c2Cl)ccc1CN1CC(C)(O)C1 [Example 455, 1-((6-(2-Chloro-3-(3-chloro-2-(2-((3-hydroxy-3-methylazetidin-1-yl)methyl)-8-methoxyimidazo[1,2-a]pyridin-6-yl)pyridin-4-yl)phenyl)-2-methoxypyridin-3-yl)methyl)-3-methylazetidin-3-ol]
10 | 0.291 µM | COc1cc(-c2nccc(-c3cccc(-c4ccc(CNC5CCN(C(=O)C6CCCCC6)CC5)c(OC)n4)c3Cl)c2Cl)ccc1CNC1CCN(C(=O)C2CCCCC2)CC1 [Example 456, (4-(((6-(2-Chloro-3-(3-chloro-2-(4-(((1-(cyclohexanecarbonyl)piperidin-4-yl)amino)methyl)-3-methoxyphenyl)pyridin-4-yl)phenyl)-2-methoxypyridin-3-yl)methyl)amino)piperidin-1-yl)(cyclohexyl)methanone]
11 | ≥ 10 µM | COc1cc(-c2nccc(-c3cccc(-c4ccc(CN5CCNC(=O)C5)c(OC)n4)c3Cl)c2Cl)ccc1CN1CCNC(=O)C1 [Example 457, 4-((6-(2-Chloro-3-(3-chloro-2-(3-methoxy-4-((3-oxopiperazin-1-yl)methyl)phenyl)pyridin-4-yl)phenyl)-2-methoxypyridin-3-yl)methyl)piperazin-2-one]
12 | 0.033 µM | COc1cc(-c2nccc(-c3cccc(-c4ccc(CNC5CCN(C(C)=O)CC5)c(OC)n4)c3Cl)c2Cl)ccc1CN1CCC(O)CC1 [Example 459, 1-(4-(((6-(2-Chloro-3-(3-chloro-2-(4-((4-hydroxypiperidin-1-yl)methyl)-3-methoxyphenyl)pyridin-4-yl)phenyl)-2-methoxypyridin-3-yl)methyl)amino)piperidin-1-yl)ethan-1-one]
13 | 0.0965 µM | COc1nc(-c2cccc(-c3ccnc(-c4cc5c(=O)n(CCNCC(=O)O)c(OC)nn5c4)c3Cl)c2Cl)ccc1CNC[C@@H]1CCC(=O)N1 [Example 460, (S)-(2-(6-(3-Chloro-4-(2-chloro-3-(6-methoxy-5-((((5-oxopyrrolidin-2-yl)methyl)amino)methyl)pyridin-2-yl)phenyl)pyridin-2-yl)-2-methoxy-4-oxopyrrolo[2,1-f][1,2,4]triazin-3(4H)-yl)ethyl)glycine]
14 | ≥ 10 µM | COc1cc(-c2nccc(-c3cccc(-c4ccc(CN5CCC(NC(C)=O)CC5)c(OC)n4)c3C)c2C)ccc1CN1CCC(NC(C)=O)CC1 [Example 461, N-(1-((6-(3-(2-(4-((4-Acetamidopiperidin-1-yl)methyl)-3-methoxyphenyl)-3-methylpyridin-4-yl)-2-methylphenyl)-2-methoxypyridin-3-yl)methyl)piperidin-4-yl)acetamide]
15 | 0.288 µM | COc1cc(-c2nccc(-c3cccc(-c4ccc(CN[C@H]5CC[C@H](O)CC5)c(OC)n4)c3Cl)c2C)ccc1CN[C@H]1CC[C@H](O)CC1 [Example 463, (1r,4r)-4-(((6-(2-Chloro-3-(2-(4-((((1r,4r)-4-hydroxycyclohexyl)amino)methyl)-3-methoxyphenyl)-3-methylpyridin-4-yl)phenyl)-2-methoxypyridin-3-yl)methyl)amino)cyclohexan-1-ol]
16 | 0.226 µM | COc1cc(-c2nccc(-c3cccc(-c4ccc(CN5CC6(COC6)C5)c(OC)n4)c3Cl)c2C)ccc1CN1CC2(COC2)C1 [Example 464, 6-(4-(4-(3-(5-((2-Oxa-6-azaspiro[3.3]heptan-6-yl)methyl)-6-methoxypyridin-2-yl)-2-chlorophenyl)-3-methylpyridin-2-yl)-2-methoxybenzyl)-2-oxa-6-azaspiro[3.3]heptane]
17 | 0.0483 µM | COC(=O)N1CCC(NCc2ccc(-c3nccc(-c4cccc(-c5ccc(CNC6CCN(C(=O)OC)CC6)c(OC)n5)c4Cl)c3Cl)cc2OC)CC1 [Example 465, Methyl 4-(((6-(2-chloro-3-(3-chloro-2-(3-methoxy-4-(((1-(methoxycarbonyl)piperidin-4-yl)amino)methyl)phenyl)pyridin-4-yl)phenyl)-2-methoxypyridin-3-yl)methyl)amino)piperidine-1-carboxylate]
18 | ≥ 10 µM | COc1cc(-c2nccc(-c3cccc(-c4ccc(CN5CCC(NC(C)=O)CC5)c(OC)n4)c3Cl)c2C)ccc1CN1CCC(NC(C)=O)CC1 [Example 466, N-(1-((6-(3-(2-(4-((4-Acetamidopiperidin-1-yl)methyl)-3-methoxyphenyl)-3-methylpyridin-4-yl)-2-chlorophenyl)-2-methoxypyridin-3-yl)methyl)piperidin-4-yl)acetamide]
19 | ≥ 10 µM | COc1cc(-c2nccc(-c3cccc(-c4ccc(CN5CCC(NC(C)=O)CC5)c(OC)n4)c3C)c2Cl)ccc1CN1CCC(NC(C)=O)CC1 [Example 467, N-(1-((6-(3-(2-(4-((4-acetamidopiperidin-1-yl)methyl)-3-methoxyphenyl)-3-chloropyridin-4-yl)-2-methylphenyl)-2-methoxypyridin-3-yl)methyl)piperidin-4-yl)acetamide]
20 | 0.0971 µM | COc1cc(-c2nccc(-c3cccc(-c4ccc(CN(C)C5CCOCC5)c(OC)n4)c3Cl)c2Cl)ccc1CNC1CCOCC1 [Example 468, N-((6-(2-chloro-3-(3-chloro-2-(3-methoxy-4-(((tetrahydro-2H-pyran-4-yl)amino)methyl)phenyl)pyridin-4-yl)phenyl)-2-methoxypyridin-3-yl)methyl)-N-methyltetrahydro-2H-pyran-4-amine]
21 | 0.0793 µM | COc1cc(-c2nccc(-c3cccc(-c4ccc(CN(C)C5CCN(C(C)=O)CC5)c(OC)n4)c3Cl)c2Cl)ccc1CNC1CCOCC1 [Example 469, 1-(4-(((6-(2-chloro-3-(3-chloro-2-(3-methoxy-4-(((tetrahydro-2H-pyran-4-yl)amino)methyl)phenyl)pyridin-4-yl)phenyl)-2-methoxypyridin-3-yl)methyl)(methyl)amino)piperidin-1-yl)ethan-1-one]
22 | 0.0317 µM | COc1cc(-c2nccc(-c3cccc(-c4ccc(CN(C)C[C@@H]5CCC(=O)N5)c(OC)n4)c3Cl)c2Cl)ccc1CN(C)C[C@@H]1CCC(=O)N1 [Example 472, (S)-5-((((6-(2-Chloro-3-(3-chloro-2-(3-methoxy-4-((methyl(((S)-5-oxopyrrolidin-2-yl)methyl)amino)methyl)phenyl)pyridin-4-yl)phenyl)-2-methoxypyridin-3-yl)methyl)(methyl)amino)methyl)pyrrolidin-2-one]
